# Source: patent US20110053770A1, “SUBSTITUTED AMINOTHIAZOLES AND THEIR USE AS FUNGICIDES” (BAYER CROPSCIENCE AG, priority 2009, published 2011)
# Marks after values point to notes of the source that are not given here.
# Assay: logP by HPLC on reversed-phase columns (C 18), EEC directive 79/831 Annex V.A8
# Type: physicochemical
# Settings: for log P (**) / log P (***): LC-MS; for log P (**) / log P (*): acidic range; for log P (**): pH 2.7, 0.1% aqueous formic acid and acetonitrile; for log P (***): neutral range, pH 7.8, 0.001 molar aqueous ammonium bicarbonate and acetonitrile; for log P (*): pH 2.3, 0.1% aqueous phosphoric acid and acetonitrile
# Description: Calibration was carried out using unbranched alkan-2-ones (having from 3 to 16 carbon atoms) with known logP values (the logP values were determined by the retention times using linear interpolation between two successive alkanones).
log P (**),log P (***),log P (*),SMILES
1.38**,,,"Brc1ccccc1-c1csc(N=C2CCCCN2)n1 [compound 107, 4-(2-bromophenyl)-N-[(2E/Z)-piperidin-2-ylidene]-1,3-thiazole-2-amine]"
,4.51,2.17,"Cc1ccc(Oc2ccccc2-c2csc(N=C3CCCCN3)n2)cc1 [compound 79, 4-[2-(4-methylphenoxy)phenyl]-N-[(2E/Z)-piperidin-2-ylidene]-1,3-thiazole-2-amine]"
2**,,,"Cc1cccc(-c2ccccc2-c2csc(N=C3CCCCN3)n2)c1 [compound 65, 4-(3′-methylbiphenyl-2-yl)-N-[(2E/Z)-piperidin-2-ylidene]-1,3-thiazole-2-amine]"
,,1.18*,"COc1ccc(-c2csc(N=C3CCCCN3)n2)cc1 [compound 56, 4-(4-methoxyphenyl)-N-[(2E/Z)-piperidin-2-ylidene]-1,3-thiazole-2-amine]"
2.16,4.36,,"Clc1cccc(Cl)c1Cc1ccccc1-c1csc(N=C2CCCCN2)n1 [compound 91, 4-[2-(2,6-dichlorobenzyl)phenyl]-N-[(2E/Z)-piperidin-2-ylidene]-1,3-thiazole-2-amine]"
,3.88,1.85,"COc1ccc(-c2cccc(-c3csc(N=C4CCCCN4)n3)c2)cc1 [compound 68, 4-(4′-methoxybiphenyl-3-yl)-N-[(2E/Z)-piperidin-2-ylidene]-1,3-thiazole-2-amine]"
1.37**,,,"Clc1cccc(-c2csc(N=C3CCCCN3)n2)c1 [compound 59, 4-(3-chlorophenyl)-N-[(2E/Z)-piperidin-2-ylidene]-1,3-thiazole-2-amine]"
,,2.16*,"Clc1cccc(Oc2ccccc2-c2csc(N=C3CCCCN3)n2)c1 [compound 85, 4-[2-(3-chlorophenoxy)phenyl]-N-[(2E/Z)-piperidin-2-ylidene]-1,3-thiazole-2-amine]"
1.95,4.19,,"Fc1ccc(Cc2ccccc2-c2csc(N=C3CCCCN3)n2)cc1 [compound 90, 4-[2-(4-fluorobenzyl)phenyl]-N-[(2E/Z)-piperidin-2-ylidene]-1,3-thiazole-2-amine]"
2.43,5.35,,"Clc1cc(Cl)cc(Cc2ccccc2-c2csc(N=C3CCCCN3)n2)c1 [compound 89, 4-[2-(3,5-dichlorobenzyl)phenyl]-N-[(2E/Z)-piperidin-2-ylidene]-1,3-thiazole-2-amine]"
,4.38,2.06,"Brc1ccccc1Oc1ccccc1-c1csc(N=C2CCCCN2)n1 [compound 86, 4-[2-(2-bromophenoxy)phenyl]-N-[(2E/Z)-piperidin-2-ylidene]-1,3-thiazole-2-amine]"
,4.17,2.01,"Fc1ccc(Oc2ccccc2-c2csc(N=C3CCCCN3)n2)c(F)c1F [compound 77, N-[(2E/Z)-piperidin-2-ylidene]-4-[2-(2,3,4-trifluorophenoxy)phenyl]-1,3-thiazole-2-amine]"
,,1.39*,"Clc1ccccc1Cc1csc(N=C2CCCCN2)n1 [compound 69, 4-(2-chlorobenzyl)-N-[(2E/Z)-piperidin-2-ylidene]-1,3-thiazole-2-amine]"
,3.98,1.94,"Fc1ccc(F)c(Oc2ccccc2-c2csc(N=C3CCCCN3)n2)c1 [compound 80, 4-[2-(2,5-difluorophenoxy)phenyl]-N-[(2E/Z)-piperidin-2-ylidene]-1,3-thiazole-2-amine]"
,4.21,1.59,"Clc1cc(Cl)cc(-c2csc(N=C3CCCCN3)n2)c1 [compound 55, 4-(3,5-dichlorophenyl)-N-[(2E/Z)-piperidin-2-ylidene]-1,3-thiazole-2-amine]"

# Continued, compound first:
SMILES,log P (**),log P (***),log P (*)
"Clc1ccc(-c2ccccc2-c2csc(N=C3CCCCN3)n2)cc1Cl [compound 66, 4-(3′,4′-dichloro-biphenyl-2-yl)-N-[(2E/Z)-piperidin-2-ylidene]-1,3-thiazole-2-amine]",2.2**,,
"c1ccc(-c2ccccc2-c2csc(N=C3CCCCN3)n2)cc1 [compound 64, 4-(biphenyl-2-yl)-N-[(2E/Z)-piperidin-2-ylidene]-1,3-thiazole-2-amine]",1.82**,,
"FC(F)(F)c1cc(-c2csc(N=C3CCCCN3)n2)cc(C(F)(F)F)c1 [compound 6, 4-[3,5-bis(trifluoromethyl)phenyl]-N-[(2E/Z)-piperidin-2-ylidene]-1,3-thiazole-2-amine]",2.23,4.36,
"FC(F)Oc1ccc(-c2csc(N=C3CCCCN3)n2)cc1 [compound 49, 4-[4-(difluoromethoxy)phenyl]-N-[(2E/Z)-piperidin-2-ylidene]-1,3-thiazole-2-amine]",1.44**,,
"CC(C)(C)Cc1cccc(-c2csc(N=C3CCCCN3)n2)c1 [compound 47, 4-[3-(2,2-dimethylpropyl)phenyl]-N-[(2E/Z)-piperidin-2-ylidene]-1,3-thiazole-2-amine]",2.51,4.86,
"Fc1cccc(-c2csc(N=C3CCCCN3)n2)c1F [compound 25, 4-(2,3-difluorophenyl)-N-[(2E/Z)-piperidin-2-ylidene]-1,3-thiazole-2-amine]",1.58,3.21,1.58
"CC(=O)N1CCCCC1=Nc1nc(-c2cc(F)cc(F)c2)cs1 [compound 40, 1-[(2E/Z)-2-{[4-(3,5-difluoro-phenyl)-1,3-thiazol-2-yl]imino}piperidin-1-yl]ethanone]",3.63,3.62,3.63
"c1ccc(Oc2ccc(-c3csc(N=C4CCCCN4)n3)cc2)cc1 [compound 5, 4-(4-phenoxyphenyl)-N-[(2E/Z)-piperidin-2-ylidene]-1,3-thiazole-2-amine]",2.17,3.97,
"Brc1cccc(-c2csc(N=C3CCCCN3)n2)c1 [compound 46, 4-(3-bromophenyl)-N-[(2E/Z)-piperidin-2-ylidene]-1,3-thiazole-2-amine]",1.8**,,
"Brc1ccc(-c2csc(N=C3CCCCN3)n2)cc1 [compound 3, 4-(4-bromophenyl)-N-[(2E/Z)-piperidin-2-ylidene]-1,3-thiazole-2-amine]",1.67**,,
"CC(=O)N1CCCCC1=Nc1nc(-c2ccc3c(c2)OCO3)cs1 [compound 39, 1-[(2E/Z)-2-{[4-(1,3-benzodioxol-5-yl)-1,3-thiazol-2-yl]imino}piperidin-1-yl]ethanone]",2.96,2.95,2.96
"c1cc2c(cc1-c1csc(N=C3CCCCN3)n1)OCO2 [compound 28, 4-(1,3-benzodioxol-5-yl)-N-[(2E/Z)-piperidin-2-ylidene]-1,3-thiazole-2-amine]",1.41,2.65,1.41
"Cc1sc(N=C2CCCCN2)nc1-c1cccc(F)c1F [compound 44, 4-(2,3-difluorophenyl)-5-methyl-N-[(2E/Z)-piperidin-2-ylidene]-1,3-thiazole-2-amine]",1.7,3.2,1.7
"CC(C)(C)c1ccc(-c2csc(N=C3CCCCN3)n2)cc1 [compound 32, 4-(4-tert-butylphenyl)-N-[(2E/Z)-piperidin-2-ylidene]-1,3-thiazole-2-amine]",2.2,4.35,2.2
